Results as given in patent US20260184687A1, “DIHYDROINDENE DERIVATIVES AS MALT1 INHIBITORS” (C4X Discovery Limited, priority 2022, published 2026).

Tests used:
[1] = tested on: IL-2 release from stimulated Jurkat cells; assay: Human IL-2 Release Phenotypic Assay (Assay 3); format: cell-based; details: Jurkat cells (clone E6-1), 200 ng/mL PMA + 300 ng/mL ionomycin, IL-2 by ELISA
Procedure, shortened: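 Jurkat E6-1 cells in RPMI1640/10% FBS were seeded at 50 000 cells/well and incubated overnight at 37° C. Half-log compound dilutions (0.5% final DMSO) were added for 30 min, then cells were stimulated with 200 ng/mL PMA + 300 ng/mL ionomycin for 48 h. IC50 came from a 4-parameter non-linear regression fit.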

FL hMALT1 enzyme = biological target: T1, FL hMALT1 enzyme (Homo sapiens, UniProt Q9UDY8); assay: biochemical;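 further: Cell-free protease assay: enzyme preincubated with compound 30 min at room temperature, then cleavage of fluorogenic Ac-LVSR-AMC substrate (100 µM) tracked by fluorescence (ex 360/em 460 nm)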
T1 sequence (Q9UDY8 1-824): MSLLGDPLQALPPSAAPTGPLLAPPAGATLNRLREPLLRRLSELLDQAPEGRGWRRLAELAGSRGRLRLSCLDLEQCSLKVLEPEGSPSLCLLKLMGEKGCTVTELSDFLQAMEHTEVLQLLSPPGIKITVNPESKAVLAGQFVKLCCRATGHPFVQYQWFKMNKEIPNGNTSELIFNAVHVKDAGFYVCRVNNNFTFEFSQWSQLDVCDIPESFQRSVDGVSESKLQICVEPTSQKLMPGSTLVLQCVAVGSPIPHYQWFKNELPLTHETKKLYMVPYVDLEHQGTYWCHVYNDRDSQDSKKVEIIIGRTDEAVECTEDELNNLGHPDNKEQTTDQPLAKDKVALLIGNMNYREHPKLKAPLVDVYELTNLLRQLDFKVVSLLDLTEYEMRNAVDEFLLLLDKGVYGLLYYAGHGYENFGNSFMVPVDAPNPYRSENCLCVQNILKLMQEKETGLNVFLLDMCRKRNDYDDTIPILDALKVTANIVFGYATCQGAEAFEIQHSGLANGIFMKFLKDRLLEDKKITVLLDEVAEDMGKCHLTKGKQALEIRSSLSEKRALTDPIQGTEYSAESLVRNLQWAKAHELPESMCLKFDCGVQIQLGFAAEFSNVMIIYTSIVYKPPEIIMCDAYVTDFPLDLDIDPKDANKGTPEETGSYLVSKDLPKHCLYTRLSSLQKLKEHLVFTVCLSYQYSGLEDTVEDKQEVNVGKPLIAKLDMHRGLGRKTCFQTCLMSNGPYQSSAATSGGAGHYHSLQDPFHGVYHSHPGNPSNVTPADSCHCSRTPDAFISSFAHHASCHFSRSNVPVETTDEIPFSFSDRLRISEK

IC50 ([1]; Homo sapiens, Jurkat, 48 h)	IC50 (FL hMALT1 enzyme)	IC50 ([1]; 48 hours)	SMILES
0.13 µM	0.04 µM		CC(=O)N1CC(C(=O)N(C)[C@@H](c2ccc(NC3Cc4ccc(Cl)c(Cl)c4C3)cn2)C(F)(F)F)C1 (single isomer, unassigned) [Example 377]
0.041 µM	0.016 µM		CN(C(=O)[C@H]1CNC(=O)C1)[C@@H](c1ccc(NC2Cc3ccc(Cl)c(Cl)c3C2)nc1)C(F)(F)F (single isomer, unassigned) [Example 347]
0.89 µM	0.07 µM		CN(C(=O)C1CC2(CNC(=O)OC2)C1)[C@@H](c1ccc(NC2Cc3ccccc3C2(C)C)nc1)C(F)(F)F (single isomer, unassigned) [Example 174]
0.59 µM	0.071 µM		CN1CC(C(=O)N(C)[C@@H](c2ccc(N[C@H]3Cc4ccccc4C3(C)C)cn2)C(F)(F)F)CCC1=O (single isomer, unassigned) [Example 252]
	0.052 µM	0.65 µM	CN(C(=O)C1CNC(=O)O1)[C@@H](c1ccc(N[C@@H]2Cc3ccccc3C2(C)C)cn1)C(F)(F)F (single isomer, unassigned) [Example 111]
1.16 µM	0.14 µM		CN(C(=O)[C@H]1C[C@]2(CCN2C)C1)[C@@H](c1ccc(NC2Cc3ccccc3C2(C)C)cn1)C(F)(F)F (single isomer, unassigned) [Example 159]
0.3 µM	0.041 µM		CN1CCC(C(=O)N(C)[C@@H](c2ccc(N[C@H]3Cc4ccccc4C3(C)C)cn2)C(F)(F)F)CC1=O (single isomer, unassigned) [Example 250]
0.2 µM	0.043 µM		CN(C(=O)C1CCS(=O)(=O)CC1)[C@@H](c1ccc(NC2Cc3ccc(Cl)c(F)c3C2)cn1)C(F)(F)F (single isomer, unassigned) [Example 277]
	0.24 µM	2.06 µM	CN(C(=O)C1CCNC(=O)C1)[C@@H](c1ccc(NC2Cc3ccccc3C2(C)C)cn1)C(F)(F)F (single isomer, unassigned) [Example 117]
	0.051 µM	1.9 µM	CN(C(=O)C1C2CS(=O)(=O)CC21)[C@@H](c1ccc(NC2Cc3ccccc3C2(C)C)cn1)C(F)(F)F (single isomer, unassigned) [Example 216]
0.45 µM	0.094 µM		CC(=O)N[C@@H]1CC[C@H](C(=O)N(C)[C@@H](c2ccc(N[C@H]3Cc4ccccc4C3(C)C)cn2)C(F)(F)F)C1 [Example 187, (1,3-cis)-3-Acetamido-N—((S)-1-(5-(((S)-1,1-dimethyl-2,3-dihydro-1H-inden-2-yl)amino)pyridin-2-yl)-2,2,2-trifluoroethyl)-N-methylcyclobutane-1-carboxamide]
	0.062 µM	0.33 µM	CN(C(=O)C1CCCNC1)[C@@H](c1ccc(NC2Cc3ccccc3C2(C)C)cn1)C(F)(F)F (single isomer, unassigned) [Example 125]
	0.057 µM	1 µM	CNC(=O)N1CC(C(=O)N(C)[C@@H](c2ccc(NC3Cc4ccccc4C3(C)C)cn2)C(F)(F)F)C1 (single isomer, unassigned) [Example 228]
	0.066 µM	0.42 µM	CN1CC(C(=O)N(C)[C@@H](c2ccc(N[C@H]3Cc4ccccc4C3(C)C)cn2)C(F)(F)F)CCC1=O (single isomer, unassigned) [Example 253]
0.51 µM	0.061 µM		CN(C(=O)C1CCS(=O)(=O)CC1)[C@@H](c1ccc(NC2Cc3cccc(Cl)c3C2)cn1)C(F)(F)F (single isomer, unassigned) [Example 263]
	0.12 µM	1.08 µM	CN1CCCC(C(=O)N(C)[C@@H](c2ccc(NC3Cc4ccccc4C3(C)C)cn2)C(F)(F)F)C1 (single isomer, unassigned) [Example 130]

IC50 ([1]; Homo sapiens, Jurkat, 48 h)	IC50 (FL hMALT1 enzyme)	IC50 ([1]; 48 hours)	SMILES
	0.045 µM	0.41 µM	CN(C(=O)C1CCC(=O)NC1)[C@@H](c1ccc(NC2Cc3ccccc3C2(C)C)cn1)C(F)(F)F (single isomer, unassigned) [Example 107]
0.113 µM	0.072 µM		CN(C(=O)[C@@H]1CNC(=O)C1)[C@@H](c1ccc(NC2Cc3ccc(Cl)c(F)c3C2)cn1)C(F)(F)F (single isomer, unassigned) [Example 317]
0.24 µM	0.018 µM		CN(C(=O)[C@@H]1CNC(=O)C1)[C@@H](c1ccc(NC2Cc3ccc(Cl)c(C4CC4)c3C2)cn1)C(F)(F)F (single isomer, unassigned) [Example 328]
0.38 µM	0.052 µM		CN(C(=O)C1CN(S(C)(=O)=O)C1)[C@@H](c1ccc(NC2Cc3ccccc3C2(C)C)cn1)C(F)(F)F (single isomer, unassigned) [Example 209]
	0.14 µM	2.7 µM	CN(C(=O)C1CCC(=O)NC1)[C@@H](c1ccc(NC2Cc3ccccc3C2(C)C)cn1)C(F)(F)F (single isomer, unassigned) [Example 104]
	0.032 µM	0.32 µM	CN1CCC(C(=O)N(C)[C@@H](c2ccc(N[C@H]3Cc4ccccc4C3(C)C)cn2)C(F)(F)F)CC1=O (single isomer, unassigned) [Example 251]
	0.15 µM	1.25 µM	CN(C(=O)C1CNC(=O)CO1)[C@@H](c1ccc(NC2Cc3ccccc3C2(C)C)cn1)C(F)(F)F (single isomer, unassigned) [Example 137]
0.36 µM	0.17 µM		CN(C(=O)[C@H]1CCC(=O)NC1)[C@@H](c1ccc(N[C@H]2Cc3ccc(Cl)cc3C2)cn1)C(F)(F)F [Example 297, (S)—N—((S)-1-(5-(((S)-5-Chloro-2,3-dihydro-1H-inden-2-yl)amino)pyridin-2-yl)-2,2,2-trifluoroethyl)-N-methyl-6-oxopiperidine-3-carboxamide]
0.2 µM	0.009 µM		CN(C(=O)C1CCS(=O)(=O)CC1)[C@@H](c1ccc(NC2Cc3ccc(Cl)c(C4CC4)c3C2)cn1)C(F)(F)F (single isomer, unassigned) [Example 306]
	0.03 µM	0.11 µM	CN(C(=O)C1CCS(=O)(=O)C1)[C@@H](c1ccc(NC2Cc3ccc(Cl)c(Cl)c3C2)cn1)C(F)(F)F (single isomer, unassigned) [Example 360]
0.35 µM	0.015 µM		CN(C(=O)C1CCS(=O)(=O)CC1)[C@@H](c1ccc(NC2Cc3ccc(Cl)c(C(F)(F)F)c3C2)cn1)C(F)(F)F (single isomer, unassigned) [Example 312]
0.34 µM	0.038 µM		CN(C(=O)C1CC2(CCC(=O)N2)C1)[C@@H](c1ccc(NC2Cc3ccccc3C2(C)C)cn1)C(F)(F)F (single isomer, unassigned) [Example 230]
	2.68 µM	7.7 µM	CN(C(=O)C1CCS(=O)(=O)CC1)[C@@H](c1ccc(NC2Cc3ccc(F)c(F)c3C2)cn1)C(F)(F)F (single isomer, unassigned) [Example 262]
	0.03 µM	0.18 µM	CN(C(=O)C1CC2(CCC(=O)N2)C1)[C@@H](c1ccc(NC2Cc3ccccc3C2(C)C)cn1)C(F)(F)F (single isomer, unassigned) [Example 232]
1.02 µM	0.19 µM		CN(C(=O)[C@H]1C[C@H](N(C)C)C1)[C@@H](c1ccc(NC2Cc3ccccc3C2(C)C)nc1)C(F)(F)F (single isomer, unassigned) [Example 114]
0.38 µM	0.15 µM		CN(C(=O)C1CCNC(=O)C1)[C@@H](c1ccc(N[C@H]2Cc3ccc(Cl)cc3C2)cn1)C(F)(F)F (single isomer, unassigned) [Example 314]
